Source: patent publication US20220168322A1, “NOVEL STAT3 INHIBITORS IDENTIFIED BY STRUCTURE-BASED VIRTUAL SCREENING INCORPORATING SH2 DOMAIN FLEXIBILITY” (Board of Regents, The University of Texas System, priority 2018, published 2022)

Key:
[1] = tested on: G-CSF-stimulated pSTAT3; experiment: Inhibition of G-CSF-stimulated pSTAT3 in Kasumi-1 cells (Luminex, pSTAT3/GAPDH); assay type: cell-based; details: Kasumi1 cells, single concentration of 10 μM, G-CSF 100 ng/ml; pSTAT3/GAPDH relative to DMSO treated cells
Experimental: […] Total protein was assayed for pSTAT3 and GAPDH levels by Luminex. GAPDH-normalized pSTAT3 values were divided by the same for untreated cells and expressed as percentage. These values were plotted as a function of Log [M] compound, and IC50 calculated using GraphPad. Data from representative experiments from at least two repeats is shown.
Luminex bead-based assay. Luminex bead-based assays were used to determine levels of pSTAT3, pSTAT1, pSTAT5, and GAPDH, as described (Bharadwaj et al., 2015). […]

[2] = molecular target: T1, STAT3 (aa 127-722) (Homo sapiens, UniProt P40763); experiment: SPR assay of STAT3 binding to immobilized EGFR pY1068 phosphododecapeptide; details: for % of max binding at 10 μm: pEGFRp-STAT3 binding (SPR) at pH 8, compound 10 μm; for % of max binding at 100 μm: pEGFRp-STAT3 binding (SPR) at pH 8, compound 100 μm
T1 construct: STAT3 (aa 127-722) at a concentration of 200 nM
T1 sequence (P40763 127-722 isoform P40763-3 limits assumed, species assumed): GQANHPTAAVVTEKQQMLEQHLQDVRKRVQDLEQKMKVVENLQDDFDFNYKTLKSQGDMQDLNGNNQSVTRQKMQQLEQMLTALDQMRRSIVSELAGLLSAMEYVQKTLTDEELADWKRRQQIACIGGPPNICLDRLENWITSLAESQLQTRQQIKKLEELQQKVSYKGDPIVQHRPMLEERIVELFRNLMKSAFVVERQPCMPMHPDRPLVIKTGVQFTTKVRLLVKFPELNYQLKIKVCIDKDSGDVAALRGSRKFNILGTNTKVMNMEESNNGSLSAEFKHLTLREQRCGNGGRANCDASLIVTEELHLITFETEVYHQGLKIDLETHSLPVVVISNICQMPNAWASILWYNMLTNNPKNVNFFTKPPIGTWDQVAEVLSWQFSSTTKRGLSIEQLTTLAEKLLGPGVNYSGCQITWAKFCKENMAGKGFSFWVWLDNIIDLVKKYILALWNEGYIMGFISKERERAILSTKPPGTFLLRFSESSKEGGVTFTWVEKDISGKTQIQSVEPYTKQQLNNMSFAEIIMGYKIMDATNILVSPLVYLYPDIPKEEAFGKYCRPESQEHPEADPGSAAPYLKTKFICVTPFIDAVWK
Experimental: Surface plasmon resonance (SPR) assay of STAT3 binding pY-peptide. STAT3 (aa 127-722) at a concentration of 200 nM in 20 mM Tris buffer (pH 8) was pre-incubated without or with compounds prior to injection onto an SA chip immobilized with phosphorylated and control non-phosphorylated biotinylated EGFR derived dodecapeptides based on sequence surrounding Y1068 (Shao et al., 2004), on a Biacore 3000 biosensor (Biacore inc., Piscataway N.J.) and analyzed as described (Bharadwaj et al., 2016).
Surface Plasmon Resonance (SPR) was performed on the 24 compounds to determine their ability to block binding of purified STAT3 to an immobilized phosphododecapeptide based on EGFR Y1068 (EGFR pY-peptide), as described (Xu et al., 2009).

% of max binding at 10 μm [2] [%] | % of max binding at 100 μm [2] [%] | SMILES | % of Control Stimulated pSTAT3 [1] [%]
 |  | CCCC(NC(=O)c1ccccc1)C(=O)OCC(=O)Nc1nc2ccc(OC)cc2s1 (centres unmarked) [AG-690/15437974] | 82
 |  | CC(=O)c1ccc(NC(=O)c2ccc(CSc3nnc(NC(=O)CCc4ccccc4)s3)cc2)cc1 [SPEC-3] | 77
 |  | Cc1c(C)c2ccc(OCC(=O)Nc3cccc([N+](=O)[O-])c3)c(C)c2oc1=O [SPEC-9] | 93
 |  | Cc1c(Cl)c(=O)oc2c(C)c(OCc3ccc([N+](=O)[O-])cc3)ccc12 [SPEC-10] | 87
 |  | O=C(COc1ccc(/C=C2/SC(=O)N(CC(=O)N3CCN(c4ccccc4)CC3)C2=O)cc1Br)Nc1ccccc1 [SPEC-11] | 86
 |  | NC(=O)COc1ccc(/C=N/NC(=O)CCCOc2ccc(Cl)cc2Cl)cc1 [SPEC-12] | 75
 |  | O=C(O)COc1ccc(/C=N/NC(=O)C2CCCN2S(=O)(=O)c2ccc(Cl)cc2)cc1 (centres unmarked) [SPEC-13] | 99
 |  | N#Cc1ccccc1Sc1ccccc1C(=O)Nc1ccc(OCC(=O)N2CCOCC2)cc1 [SPEC-14] | 91
 |  | CC(=O)NCCc1ccc(S(=O)(=O)Nc2ccc(C(=O)NCc3ccccc3)cc2)cc1 [SPEC-15] | 98
 |  | CC1=CC(=O)OC2C=C(OCCCCCCOC3=CC4OC(=O)C=C(C)C4C=C3)C=CC12 (centres unmarked) [SPEC-17] | 106
76.7 | 46.1 | CCCCOc1ccc(/C=C2\SC(=O)NC2=O)cc1OCC [SPEC-20] | 27
 |  | O=C(CN1C(=O)S/C(=C\c2ccc(-c3cc(C(=O)O)ccc3Cl)o2)C1=O)Nc1ccccc1 [SPEC-23] | 114
 |  | Cc1ccccc1NC(=O)CN1C(=O)S/C(=C/c2ccc(-c3ccc(Cl)c(C(=O)O)c3)o2)C1=O [SPEC-24] | 105
 |  | COC(=O)CSc1nc2ccc(NC(=O)c3ccccc3C(=O)N3CCN(c4ccccc4)CC3)cc2s1 [SPEC-27] | 61
 |  | O=C(CSc1nnc(-c2ccccc2)c(-c2ccccc2)n1)Nc1ccc(S(=O)(=O)Nc2nccs2)cc1 [SPEC-30] | 68
 |  | COc1ccc(CCNC2CC(=O)N(c3ccc(N4C(=O)CC(NCCc5ccc(OC)cc5)C4=O)cc3)C2=O)cc1 (centres unmarked) [SPEC-31] | 99
 |  | CCOC(=O)COc1ccc(-c2nc3ccccc3s2)cc1OC [SPEC-33] | 89
 |  | C=CCN1C(=O)NC(=O)/C(=C/c2ccc(OCC(=O)Nc3ccc(C)cc3)cc2)C1=O [SPEC-35] | 69
 |  | CCOc1ccc(NC(=O)CN2C(=O)S/C(=C/c3ccc(OCC(N)=O)c(OCC)c3)C2=O)cc1 [SPEC-40] | 75
 |  | COc1cc(C=Nc2cccc(Cl)c2)ccc1OCC(N)=O [SPEC-41] | 74
 |  | O=C(O)c1ccc(-c2ccc(CNCCc3c[nH]c4ccccc34)o2)cc1 [SPEC-42] | 118

% of max binding at 10 μm [2] [%] | % of max binding at 100 μm [2] [%] | SMILES | % of Control Stimulated pSTAT3 [1] [%]
 |  | O=C(O)c1cccc(-c2ccc(CNCc3ccc4c(c3)OCO4)o2)c1 [SPEC-43] | 96
 |  | COc1ccccc1CCNCc1ccc(-c2cccc(C(=O)O)c2)o1 [SPEC-44] | 120
 |  | CCC(Sc1nnc(NC(=O)CCc2ccccc2)s1)C(=O)Nc1ccc(C(C)=O)cc1 (centres unmarked) [SPEC-45] | 113
 |  | CC1=NN(c2ccc(C)cc2)C(=O)/C1=C\c1ccc(-c2ccc(C(=O)O)cc2)o1 [SPEC-46] | 71
 |  | O=C(NNC(=O)[C@@H]1CCCC[C@@H]1C(=O)O)c1ccc(NC(=O)C2CC2)cc1 [SPEC-47] | 104
 |  | O=C(CCCCC(=O)NNC(=O)COc1ccc2ccccc2c1)NNC(=O)COc1ccc2ccccc2c1 [SPEC-49] | 105
 |  | CCN(CC)S(=O)(=O)c1ccc(NC(=O)CCCC(=O)Nc2ccc(S(=O)(=O)N(CC)CC)cc2)cc1 [SPEC-51] | 87
 |  | CC1CCN(S(=O)(=O)c2ccc(NC(=O)CCCC(=O)Nc3ccc(S(=O)(=O)N4CCC(C)CC4)cc3)cc2)CC1 [SPEC-52] | 120
 |  | O=C(CCCCC(=O)Nc1ccc(S(=O)(=O)Nc2ccc(F)cc2)cc1)Nc1ccc(S(=O)(=O)Nc2ccc(F)cc2)cc1 [SPEC-53] | 71
 |  | O=C(CCCCC(=O)Nc1ccc(S(=O)(=O)N2CCCC2)cc1)Nc1ccc(S(=O)(=O)N2CCCC2)cc1 [SPEC-55] | 114
 |  | CCN1C(=O)/C(=C/c2ccc(OCC(=O)O)c(OC)c2)SC1=S [SPEC-59] | 78
 |  | COc1cc(C=C2C(=O)OC(C)(c3ccccc3)OC2=O)ccc1OCc1cccc(C(=O)O)c1 (centres unmarked) [SPEC-60] | 98
 |  | CC(=O)N1CCc2nc(SCC(=O)Nc3cccc(C#N)c3)c(C#N)c(C(F)(F)F)c2C1 [SPEC-62] | 108
 |  | CC(=O)c1ccc(NC(=O)NC2CCCCC2)cc1 [SPEC-63] | 118
57.5 | 43.5 | CC(C)c1ccc(NC(=O)C2C3C=CC(CC3)C2C(=O)O)cc1 (centres unmarked) [SPEC-65] | 35
57.2 | 15.9 | CS(=O)(=O)c1ccc2nc(NC(=O)c3cccc(Cn4cc(Cl)cn4)c3)sc2c1 [SPEC-66] | 48
64.1 | 51.3 | COc1ccc(CCNC(=O)c2cccc(C(=O)NCCc3ccc(OC)c(OC)c3)c2)cc1OC [SPEC-67] | 
 |  | COc1ccc(/C=N/NC(=O)COc2ccc(Cl)cc2)cc1COc1cccc2cccnc12 [SPEC-69] | 112
58.5 | 31.5 | O=C(Nc1ccc(Oc2ccccc2Cl)cc1)C1C2CC3C(OC(=O)C31)C2Br (centres unmarked) [SPEC-73] | 38
 |  | O=C(COC(=O)C1C2CC3C(OC(=O)C31)C2Br)c1ccc(Cl)cc1Cl (centres unmarked) [SPEC-74] | 82
 |  | COc1cccc(-c2csc(NC(=O)C3CC(=O)N(c4cccc(Cl)c4)C3)n2)c1 (centres unmarked) [SPEC-75] | 55

% of max binding at 10 μm [2] [%] | % of max binding at 100 μm [2] [%] | SMILES | % of Control Stimulated pSTAT3 [1] [%]
 |  | COc1ccc(C(=O)COC(=O)c2ccc(NC(=O)CCCC(=O)O)cc2)cc1 [SPEC-77] | 121
 |  | CCN1C(=O)N/C(=C/c2ccc(OCc3cccc(C(=O)O)c3)c(Cl)c2)C1=O [SPEC-79] | 79
 |  | O=C(O)c1ccc(-c2ccc(/C=C3/NC(=O)N(c4ccc(Cl)cc4)C3=O)o2)cc1 [SPEC-80] | 89
109.3 | 28.4 | O=C(O)c1ccc(-c2ccc(/C=C3/NC(=O)N(Cc4ccccc4F)C3=O)o2)cc1Cl [SPEC-82] | 27
 |  | CCN1C(=O)S/C(=C/c2ccc(OCc3cccc(C(=O)O)c3)c(Br)c2)C1=O [SPEC-83] | 61
120.1 | 59.1 | CCOc1ccc(N(C(C)C(=O)Nc2cccc(Cl)c2C)S(C)(=O)=O)cc1 (centres unmarked) [SPEC-86] | 5
 |  | CC(=O)c1ccc(NC(=O)CSc2nnc(CNc3ccc(C)cc3C)n2CC2CCCO2)cc1 (centres unmarked) [SPEC-89] | 68
132.2 | 59.5 | CCn1c(CNc2ccc(Cl)cc2)nnc1SC(C)C(=O)Nc1ccc(C(C)=O)cc1 (centres unmarked) [SPEC-90] | 4
 |  | CC(=O)c1ccc(NC(=O)CSc2nnc(COc3ccc([N+](=O)[O-])cc3)n2C)cc1 [SPEC-92] | 51
 |  | CC(=O)c1ccc(NC(=O)C(C)Oc2ccccc2)cc1 (centres unmarked) [SPEC-94] | 97
 |  | COc1cccc(N=C2SC(C(=O)Nc3ccc(C(=O)O)cc3)CC(=O)N2C)c1 (centres unmarked) [SPEC-95] | 104
 |  | O=C(CCN1C(=O)S/C(=C\c2ccc(Cl)cc2)C1=O)Nc1ccc(S(=O)(=O)Nc2nccs2)cc1 [SPEC-97] | 55
 |  | CC(=O)c1ccc(NC(=O)CC2S/C(=N\N=C3CCCCCC3)NC2=O)cc1 (centres unmarked) [SPEC-99] | 67
70.8 | 15.4 | COC(=O)c1ccc(N2C(=O)CC(SC(=NCCc3ccc(S(N)(=O)=O)cc3)Nc3ccccc3)C2=O)cc1 (centres unmarked) [SPEC-100] | 42
73.7 | 21.4 | CC(=O)c1ccc(NC(=O)C2C3CC/C=C\CCC32)cc1 (centres unmarked) [SPEC-102] | 38
 |  | CC(=O)c1ccc(NC(=O)CSc2nn3c(SCC(=O)Nc4ccc(C(C)=O)cc4)nnc3s2)cc1 [SPEC-104] | 91
 |  | O=C(CN1C(=O)S/C(=C/c2ccc(Cl)cc2)C1=O)Nc1ccc(S(=O)(=O)Nc2nccs2)cc1 [SPEC-105] | 86
 |  | CN1CCS/C1=C/C=C1\SC(=S)N(CC(=O)O)C1=O [SPEC-107] | 107
 |  | COC(=O)CCC(=O)Nc1ccc(Cc2ccc(NC(=O)CCC(=O)OC)cc2)cc1 [SPEC-108] | 98
